Laboratory results: US7858606B2, “Triterpenoid derivatives” (Univerzita Palackeho v Olomouci, priority 2001, dated 2010)
Read-outs that look alike come from different tables or passages of the source.

Columns and labels:
Format in all cases: cell-based
[1] = tested on: Human T-lymphoblastic leukaemia cell line CEM; test: MTT cytotoxicity screening assay, CEM; settings: human T-lymphoblastic leukemia, 72 hours, read-out: TCS50
From the text: (§1) One of the parameters used as the basis for colorimetric assays is the metabolic activity of viable cells. For example, a microtiter assay which uses the tetrazolium salt MTT is now widely used to quantitate cell proliferation and cytotoxicity [Hajdúch M, Mihál V, Minarík J, Fáber E, Safárová M, Weigl E, Antálek P.: Cytotechnology, 1996, 19, 243-245]. For instance, this assay is used in drug screening programs and in chemosensitivity testing. Because tetrazolium salts are cleaved only by metabolically active cells, these assays exclusively detect viable cells. In the case of the MTT assay, yellow soluble tetrazolium salt is reduced to a coloured water-insoluble formazan salt. After it is solubilized, the formazan formed can easily and rapidly be quantified in a conventional ELISA plate reader at 570 nm (maximum absorbency). The quantity of reduced formazan corresponds to the number of vital cells in the culture.
(§2) Human T-lymphoblastic leukaemia cell line CEM was used for routine screening of these compounds. […] The cells were maintained in Nunc/Corning 80 cm^2 plastic tissue culture flasks and cultured in cell culture medium (DMEM with 5 g/l glucose, 2 mM glutamine, 100 U/ml penicillin, 100 μg/ml streptomycin, 10% foetal calf serum and sodium bicarbonate). Individual compounds were dissolved in 10% dimethylsulfoxide/saline, pH 8.0.
The cell suspensions that were prepared and diluted according to the particular cell type and the expected target cell density (2.500-30.000 cells per well based on cell growth characteristics) were added by pipette (80 μl) into 96/well microtiter plates. Inoculates were allowed a pre-incubation period of 24 hours at 37° C. and 5% CO2 for stabilisation. Four-fold dilutions of the intended test concentration were added at time zero in 20 μl aliquots to the microtiter plate wells. Usually, test compounds were evaluated at six 4-fold dilutions. In routine testing, the highest well concentration was 250 μM, but it may differ, depending on the agent. All drug concentrations were examined in duplicate. Incubations of cells with the test compounds lasted for 72 hours at 37° C., in 5% CO2 atmosphere and 100% humidity. At the end of the incubation period, the cells were assayed by using the MTT assay. Ten microliters of the MTT stock solution were pipetted into each well and incubated further for 1-4 hours. After this incubation period, formazan was solubilized by the addition of 100 μl/well of 10% SDS in water (pH=5.5) followed by further incubation at 37° C. overnight. The optical density (OD) was measured at 540 nm with the Labsystem iEMS Reader MF(UK). The tumour cell survival (TCS) was calculated using the following equitation: TCS=(ODdrug exposed well/mean ODcontrol wells)×100%. The TCS50 value, the drug concentration lethal to 50% of the tumour cells, was calculated from the obtained dose response curves.
To evaluate the anti-cancer activity of betulinines, their cytotoxic activity against CEM cell line was examined using the screening assay. Potent compounds were further tested against a panel of cell lines of different histogenetic and species origin (Table 2).

Saos2 human = test: MTT cytotoxicity assay, Saos2; settings: p53−/−, Rb−/−, 72 hours, read-out: TCS50
From the text: as §1, §2
(§3) The cell suspensions that were prepared and diluted according to the particular cell type and the expected target cell density (2.500-30.000 cells per well based on cell growth characteristics) were added by pipette (80 μl) into 96/well microtiter plates. […] Usually, test compounds were evaluated at six 4-fold dilutions. […] The optical density (OD) was measured at 540 nm with the Labsystem iEMS Reader MF(UK). The tumour cell survival (TCS) was calculated using the following equitation: TCS=(ODdrug exposed well/mean ODcontrol wells)×100%. The TCS50 value, the drug concentration lethal to 50% of the tumour cells, was calculated from the obtained dose response curves.

[2] = tested on: B16 mouse melanoma cell line; test: MTT cytotoxicity assay, B16; settings: 72 hours, read-out: TCS50
From the text: as §1, §2, §3

[3] = tested on: K562-GEM human promyelocytic leukemia, gemcitabin resistant; test: MTT cytotoxicity assay, K562-GEM; settings: 72 hours, read-out: TCS50
From the text: as §1, with “culture. […]” for “culture.”
(§4) The cell suspensions that were prepared and diluted according to the particular cell type and the expected target cell density (2.500-30.000 cells per well based on cell growth characteristics) were added by pipette (80 μl) into 96/well microtiter plates. […] Usually, test compounds were evaluated at six 4-fold dilutions. […] The optical density (OD) was measured at 540 nm with the Labsystem iEMS Reader MF(UK). […]

[4] = tested on: K562-FLUD human promyelocytic leukemia, fludarabin resistant; test: MTT cytotoxicity assay, K562-FLUD; settings: 72 hours, read-out: TCS50
From the text: as §1, §2, §3

[5] = tested on: A549 human lung adenocarcinoma; test: MTT cytotoxicity assay, A549; settings: 72 hours, read-out: TCS50
From the text: as §1, with “culture. […]” for “culture.”
as §4

[6] = tested on: CEM-DNR bulk human T-lymphoblastic leukemia, daunorubicin resistant; test: MTT cytotoxicity assay, CEM-DNR bulk; settings: 72 hours, read-out: TCS50
From the text: as §1, §2, §3

[7] = tested on: HepG2 human hepatocellular carcinoma; test: MTT cytotoxicity assay, HepG2; settings: 72 hours, read-out: TCS50
From the text: as §1, §2, §3

U2OS human osteosarcoma = test: MTT cytotoxicity assay, U2OS; settings: p53+/−, Rb +/−, 72 hours, read-out: TCS50
From the text: as §1, §2, §3

[8] = tested on: CEM-VCR 1/F3 human T-lymphoblastic leukemia, vincristin resistant; test: MTT cytotoxicity assay, CEM-VCR 1/F3; settings: 72 hours, read-out: TCS50
From the text: as §1, §2, §3

[9] = tested on: LNCaP human prostate cancer; test: MTT cytotoxicity assay, LNCaP; settings: androgen dependent, 72 hours, read-out: TCS50
From the text: as §1, with “culture. […]” for “culture.”
as §4

U87MG human glioblastoma = test: MTT cytotoxicity assay, U87MG; settings: 72 hours, read-out: TCS50
From the text: as §1, §2, §3

[10] = tested on: CEM-VCR 3/D5 human T-lymphoblastic leukemia, vincristin resistant; test: MTT cytotoxicity assay, CEM-VCR 3/D5; settings: 72 hours, read-out: TCS50
From the text: as §1, §2, §3

[11] = tested on: K562-ARA-C human promyelocytic leukemia, cytarabin resistant; test: MTT cytotoxicity assay, K562-ARA-C; settings: 72 hours, read-out: TCS50
From the text: as §1, §2, §3

[12] = tested on: SW620 human colon cancer, metastasis; test: MTT cytotoxicity assay, SW620; settings: read-out: TCS50
From the text: as §1, §2, §3

[13] = tested on: CEM-DNR 1/C2 human T-lymphoblastic leukemia, daunorubicin resistant; test: MTT cytotoxicity assay, CEM-DNR 1/C2; settings: 72 hours, read-out: TCS50
From the text: as §1, §2, §3

[14] = tested on: CEM-VCR bulk human T-lymphoblastic leukemia, vincristin resistant; test: MTT cytotoxicity assay, CEM-VCR bulk; settings: 72 hours, read-out: TCS50
From the text: as §1, §2, §3

[15] = tested on: B16F mouse melanoma, metastatic cell line; test: MTT cytotoxicity assay, B16F; settings: 72 hours, read-out: TCS50
From the text: as §1, §2, §3

[16] = tested on: OVCAR-3 human ovarian cancer; test: MTT cytotoxicity assay, OVCAR-3; settings: 72 hours, read-out: TCS50
From the text: as §1, with “culture. […]” for “culture.”
as §4

HT-29 human colon cancer = test: MTT cytotoxicity assay, HT-29; settings: 72 hours, read-out: TCS50
From the text: as §1, §2, §3

[17] = tested on: Caco-2 human colon cancer; test: MTT cytotoxicity assay, Caco-2; settings: 72 hours, read-out: TCS50
From the text: as §1, §2, §3

[18] = tested on: K562-CdA human promyelocytic leukemia, cladrubin resistant; test: MTT cytotoxicity assay, K562-CdA; settings: 72 hours, read-out: TCS50
From the text: as §1, §2, §3

[19] = tested on: BT549 human breast cancer; test: MTT cytotoxicity assay, BT549; settings: 72 hours, read-out: TCS50
From the text: as §1, §2, §3

[20] = tested on: MDA-MB-238 human breast cancer; test: MTT cytotoxicity assay, MDA-MB-238; settings: estrogen independent, p53mut/mut, 72 hours, read-out: TCS50
From the text: as §1, with “culture. […]” for “culture.”
as §4

human normal lymphocytes = test: MTT cytotoxicity assay, normal lymphocytes; settings: human normal lymphocytes (non-malignant), 72 hours, read-out: TCS50
From the text: as §1, §2, §3

[21] = tested on: DU145 human prostate cancer; test: MTT cytotoxicity assay, DU145; settings: androgen independent, Rb−/−, 72 hours, read-out: TCS50
From the text: as §1, with “culture. […]” for “culture.”
as §4

MEL-3 human melanoma = test: MTT cytotoxicity assay, MEL-3; settings: 72 hours, read-out: TCS50
From the text: as §1, §2, §3

[22] = tested on: NIH3T3 mouse immortalised fibroblasts; test: MTT cytotoxicity assay, NIH3T3; settings: NIH3T3, mouse immortalised fibroblasts (non-malignant), 72 hours, read-out: TCS50
From the text: as §1, §2, §3

[23] = tested on: MCF-7 human breast cancer; test: MTT cytotoxicity assay, MCF-7; settings: estrogen dependent, p53+/+, Rb +/+, 72 hours, read-out: TCS50
From the text: as §1, with “culture. […]” for “culture.”
as §4

Compound	IC50 [1] [µM]	IC50 (Saos2 human; Saos2, human rhabdomyosarcoma) [µM]	IC50 [2] [µM]	IC50 [3] [µM]	IC50 [4] [µM]	IC50 [5] [µM]	IC50 [6] [µM]	IC50 [7] [µM]	IC50 (U2OS human osteosarcoma) [µM]	IC50 [8] [µM]	IC50 [10] [µM]	IC50 [11] [µM]	IC50 [13] [µM]	IC50 [14] [µM]	IC50 [15] [µM]	IC50 (HT-29 human colon cancer) [µM]	IC50 [17] [µM]	IC50 [18] [µM]	IC50 (MEL-3 human melanoma) [µM]	IC50 [22] [µM]	further results
C=C(C)C1CCC2(C(=O)OC)CCC3(C)C(CCC4C5(C)CCC(OC(=O)OCC(O)CO)C(C)(C)C5CCC43C)C12 (stereo not drawn) [II.45, 17β-methoxycarbonyl-28-norlup-20(29)-en-3β-yl(2,3-dihydroxypropyl)carbonate]	13	–	–	–	–	–	–	–	–	–	–	–	–	–	–	–	–	–	–	–	–
C=C(C=O)[C@@H]1CC[C@]2(C(=O)O)CC[C@]3(C)[C@H](CC[C@@H]4[C@@]5(C)CC[C@H](O)C(C)(C)[C@@H]5CC[C@]43C)[C@@H]12 [II.14, 3β-hydroxy-30-oxolup-20(29)-en-28-oic acid]	3	4.8	9.3	2.4	1.3	3.3	3.3	7.1	3.9	5.9	7.8	1.6	1.6	7	12	4.7	7.7	2.1	3.7	16	IC50 [9]: 3.6 µM; IC50 (U87MG human glioblastoma): 8.4 µM; IC50 ([12]; 72 hours): 5.9 µM; IC50 [16]: 2.6 µM; IC50 ([19]; p53mut/mut): 6.3 µM; IC50 [20]: 2.4 µM; IC50 (human normal lymphocytes): 25 µM; IC50 [21]: 2.8 µM; IC50 [23]: 4.3 µM
C=C(C)[C@@H]1CC[C@]2(C(=O)O)CC[C@]3(C)[C@H](CC[C@@H]4[C@@]5(C)CC[C@H](O)C(C)(C)[C@@H]5CC[C@]43C)[C@@H]12 [Betulinic acid, betulinic acid, reference compound]	250	–	36	–	250	–	250	3.6	250	19	24	250	250	69	4.6	250	20	250	2.7	250	IC50 (Saos2 human; SAOS-2, Saos2, human rhabdomyosarcoma): 250 µM; IC50 (U87MG human glioblastoma; U-87 MG): 250 µM; IC50 ([12]; SW-620, 72 hours): 250 µM; IC50 ([19]; BT-549, p53mut/mut): 250 µM; IC50 (human normal lymphocytes; Lymphocyte): 250 µM
3β-acetoxy-lup-20(29)-en-28-oyl fluoride [II.55]	19	–	–	–	–	–	–	–	–	–	–	–	–	–	–	–	–	–	–	–	–
COC(=O)C12CCC3(C)C(CCC4C5(C)CCC(OC(C)=O)C(C)(C)C5CCC43C)C1=C(C(C)C)C(=O)C2=O (stereo not drawn) [II.4, methyl 3β-acetoxy-21,22-dioxolup-18-en-28-oate]	7.2	7.9	35	5	4.9	6.7	5.2	5.1	4.3	38	13	6.4	10	28	68	5.6	8.1	5.2	5.9	97	IC50 [9]: 3.3 µM; IC50 (U87MG human glioblastoma): 24 µM; IC50 ([12]; 72 hours): 5.9 µM; IC50 [16]: 4.7 µM; IC50 ([19]; p53mut/mut): 15 µM; IC50 [20]: 3.3 µM; IC50 (human normal lymphocytes): 85 µM; IC50 [21]: 2 µM; IC50 [23]: 13 µM
